Data: ChEMBL document CHEMBL2086392, “Isomannide derivatives as new class of inhibitors for human kallikrein 7” (Bioorg Med Chem Lett, 2012)

Tests used:
[1] = Solubility of the compound in 10% DMSO; assay type: physicochemical
[2] = biological target: T1, Kallikrein-5 (Homo sapiens, UniProt Q9Y337); assay: Inhibition of human recombinant KLK5 expressed in insect cell/baculovirus using Abz-KLYSSKQ-EDDnp as substrate by FRET analysis
T1 sequence (Q9Y337 whole entry): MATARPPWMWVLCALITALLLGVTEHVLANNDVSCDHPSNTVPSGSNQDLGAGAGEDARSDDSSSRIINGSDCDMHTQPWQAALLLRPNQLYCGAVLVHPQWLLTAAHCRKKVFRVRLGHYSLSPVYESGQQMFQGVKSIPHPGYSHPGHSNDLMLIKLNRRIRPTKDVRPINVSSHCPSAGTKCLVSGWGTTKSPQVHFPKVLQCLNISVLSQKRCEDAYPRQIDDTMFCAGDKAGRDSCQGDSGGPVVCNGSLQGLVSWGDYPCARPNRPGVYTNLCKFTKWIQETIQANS

[3] = biological target: T2, Kallikrein-7 (Homo sapiens, UniProt P49862); assay: Inhibition of human recombinant KLK7 expressed in insect cell/baculovirus using Abz-KLYSSKQ-EDDnp as substrate by FRET analysis
[4] = biological target: T2, Kallikrein-7; assay: Competitive inhibition of recombinant human KLK7 expressed in insect cell/baculovirus using Abz-KLYSSKQ-EDDnp as substrate by Dixon plot analysis
[5] = biological target: T1, Kallikrein-5; assay: Competitive inhibition of human KLK5 expressed in insect cell/baculovirus using Abz-KLYSSKQ-EDDnp as substrate by Dixon plot analysis
[6] = Solubility of the compound in aqueous buffer; assay type: physicochemical

T2 sequence (P49862 whole entry): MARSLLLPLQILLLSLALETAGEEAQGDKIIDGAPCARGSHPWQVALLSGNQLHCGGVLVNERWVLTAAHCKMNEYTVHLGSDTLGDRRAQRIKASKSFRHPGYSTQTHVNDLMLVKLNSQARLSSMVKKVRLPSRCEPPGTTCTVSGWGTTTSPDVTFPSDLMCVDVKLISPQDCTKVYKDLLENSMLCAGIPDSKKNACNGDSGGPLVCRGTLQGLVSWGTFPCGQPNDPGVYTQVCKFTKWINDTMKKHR

Row | SMILES | solubility [1] | IC50 [2] [µM] | IC50 [3] [µM] | Ki [4] [µM] | Ki [5] [µM] | solubility [6]
1 | O=C(N[C@@H]1CO[C@H]2[C@@H]1OC[C@H]2OCc1ccccc1)/C(=C/c1ccco1)NC(=O)c1ccccc1 (stereo in doubt) | – | 99.1 | 16.3 | 3 | 70.4 | soluble
2 | O=C(N[C@@H]1CO[C@H]2[C@@H]1OC[C@H]2OCc1ccccc1)/C(=C/c1ccc(Cl)cc1)NC(=O)c1ccccc1 (stereo in doubt) | Insoluble | – | – | – | – | –
3 | O=C(N[C@@H]1CO[C@H]2[C@@H]1OC[C@H]2OCc1ccccc1)/C(=C/c1cccnc1)NC(=O)c1ccccc1 (stereo in doubt) | – | 324 | 196 | 75.1 | 200 | soluble
4 | O=C(N[C@@H]1CO[C@H]2[C@@H]1OC[C@H]2OCc1ccccc1)/C(=C/c1ccc2ccccc2c1)NC(=O)c1ccccc1 | Insoluble | – | – | – | – | –
5 | O=C(N[C@@H]1CO[C@H]2[C@@H]1OC[C@H]2OCc1ccccc1)/C(=C/c1ccc2c(c1)OCO2)NC(=O)c1ccccc1 (stereo in doubt) | – | > 1000 | 205 | 80.3 | 357 | soluble
6 | O=C(N[C@@H]1CO[C@H]2[C@@H]1OC[C@H]2OCc1ccccc1)/C(=C/c1cccs1)NC(=O)c1ccccc1 (stereo in doubt) | – | 99.2 | 13.3 | 1.8 | 70.7 | soluble
7 | O=C(N[C@@H]1CO[C@H]2[C@@H]1OC[C@H]2OCc1ccccc1)/C(=C/c1cc2ccccc2s1)NC(=O)c1ccccc1 | Insoluble | – | – | – | – | –

Other lines, results leading:

Row | solubility [1] | IC50 [2] [µM] | IC50 [3] [µM] | Ki [4] [µM] | Ki [5] [µM] | solubility [6] | SMILES
8 | Insoluble | – | – | – | – | – | O=C(N[C@@H]1CO[C@H]2[C@@H]1OC[C@H]2OCc1ccccc1)/C(=C/c1c[nH]c2ccccc12)NC(=O)c1ccccc1 (stereo in doubt)
9 | Insoluble | – | – | – | – | – | O=C(N[C@@H]1CO[C@H]2[C@@H]1OC[C@H]2OCc1ccccc1)/C(=C/c1ccc(C(F)(F)F)cc1)NC(=O)c1ccccc1 (stereo in doubt)
10 | Insoluble | – | – | – | – | – | O=C(N[C@@H]1CO[C@H]2[C@@H]1OC[C@H]2OCc1ccccc1)/C(=C/c1cc2ccccc2o1)NC(=O)c1ccccc1
11 | – | 101 | 161 | 77.4 | 71.9 | soluble | CC(=O)N/C(=C\c1cccs1)C(=O)N[C@@H]1CO[C@H]2[C@@H]1OC[C@H]2OCc1ccccc1 (stereo in doubt)
12 | Insoluble | – | – | – | – | – | O=C(N[C@@H]1CO[C@H]2[C@@H]1OC[C@H]2OCc1ccccc1)/C(=C/c1ccc(Br)cc1)NC(=O)c1ccccc1 (stereo in doubt)
13 | Insoluble | – | – | – | – | – | O=C(N[C@@H]1CO[C@H]2[C@@H]1OC[C@H]2OCc1ccccc1)/C(=C/c1ccc(F)cc1)NC(=O)c1ccccc1 (stereo in doubt)
14 | Insoluble | – | – | – | – | – | O=C(N[C@@H]1CO[C@H]2[C@@H]1OC[C@H]2OCc1ccccc1)/C(=C/c1ccccc1)NC(=O)c1ccccc1
15 | Insoluble | – | – | – | – | – | COc1ccc(/C=C(\NC(=O)c2ccccc2)C(=O)N[C@@H]2CO[C@H]3[C@@H]2OC[C@H]3OCc2ccccc2)cc1 (stereo in doubt)
